Assay results taken from patent US8318708B2, “Use of vitamin D receptor agonists, ligands, and precursors to treat pancreatic fibrosis” (Salk Institute for Biological Studies, priority 2007, dated 2012).

What was measured:
[1] = test system: hepatocytes; experiment: Illumina Sentrix arrays: hepatocytes treated with TGF-β1 and calcitriol (Tables 9 and 10); type: cell-based; settings: rat hepatocytes, TGF-β1 2 ng/mL, 24 h
Description: Cells were cultured and treated as described in Example 14. Gene expression was determined using Illumina Sentrix expression arrays, rat version 1, according to the manufacturer's instructions.
Triplicate biologic replicates were assayed for each treatment.

[2] = test system: primary HSCs; experiment: Illumina array: TGFβ1-treated primary rat HSCs with vitamin D3 (Table 4); settings: rat HSCs 24 h; TGFβ1 100 pM, vitamin D3 1 nM
Description: For Illumina microarray analysis, Illumina TotalPrep RNA Amplification Kit (Ambion; Catalog # IL1791) was used with the manufacturer's instructions for the RNA amplification. […] Essentially, biotinylated cRNA was prepared according to the manufacturer's directions starting with 200 ng total RNA. Hybridization to the Illumina Sentrix RatRef-12 v.1 and Mouse RefSeq version 2 Expression BeadChips (Illumina, Inc., San Diego, Calif.), washing and scanning were performed according to the Illumina BeadStation 500× manual (revision C). […] RNA is isolated using Trizol and the quality/integrity of the total RNA verified using a Bioanalyzer (Agilent).
Microarray experiments were repeated two times with RNA from two experiments where HSCs were isolated from two different rats and for each condition triplicate samples were used. The “Detection Score” was used to determine expression using the Illumina platform. It is a statistical measure in the BeadStudio software (version 1.5.0.34), which is computed based on the Z-value of a gene relative to the Z-value of the negative controls. The Illumina data were adjusted (“normalized”) using a cubic spline function. […] The expression difference score, DiffScore, takes into account background noise and sample variability. […] Illumina expression arrays utilize gene-specific 50-mer oligonucleotide probes with an average of 30 replicates of each probe bead per individual array.
The Illumina platform described above was used to identify genome-wide effects of vitamin D3-activated VDR on TGFβ signaling in primary rat HSCs. Isolated primary HSCs were cultured on plastic tissue culture plates for 40 hours prior to treatment with or without vitamin D3 (1 nM) in the presence or absence of TGFβ1 (100 pM) for 24 hours. Cells were then harvested, total RNA extracted, and biotin labeled cRNA was prepared for hybridization to an Illumina Rat RefSeq version 1 genome array. […] The data generated from these arrays was processed using Illumina BeadStudio software to identify gene expression changes between the different samples. The vitamin D3 mediated changes on TGFβ1 signaling were identified by comparing TGFβ1 and co-treated TGFβ1/vitamin D3 samples.

TGF-β1: transforming growth factor beta 1; human recombinant from Sigma-Aldrich T7039
Abcb4 gene expression [1]: 96.93
Abcg2 gene expression [1]: 913.91
Abcg4 gene expression [1]: 95.82
Ccl3 gene expression [1]: 540.53
Ccl4 gene expression [1]: 380.06
Ccl7 gene expression [1]: 1303.89
Ccl12 gene expression [1]: 368.02
Cd44 gene expression [1]: 680.16
Cxcr4 gene expression [1]: 164.68
Cyp1a2 gene expression [1]: 135.53
Cyp2d1 gene expression [1]: 147.68
Cyp2d5 gene expression [1]: 338.34
Cyp3a23/3a1 gene expression [1]: 380.28
Gstm1 gene expression [1]: 2230.15
Gstm2 gene expression [1]: 715.15
Gsto1 gene expression [1]: 1364.06
Il1a gene expression [1]: 675.41
Il1b gene expression [1]: 1551.37
Jak2 gene expression [1]: 669.28
Mmp9 gene expression [1]: 159.27
Nos2 gene expression [1]: 90.7
Slc7a6os gene expression [1]: 241.22
Slc25a4 gene expression [1]: 671.16
Slc25a19 gene expression [1]: 195.9
Slc28a1 gene expression [1]: 50.32
Slc28a2 gene expression [1]: 157.29
Slc35a4 gene expression [1]: 157.88
Slc37a4 gene expression [1]: 246.55
Tlr2 gene expression [1]: 978.98
Tlr7 gene expression [1]: 110.03
Ugt2b5 gene expression [1]: 155.32
cyp2a1 gene expression [1]: 216.95
cyp2c22 gene expression [1]: 2009.34
cyp4a10 gene expression [1]: 91.71
cyp24a1 gene expression [1]: 56.9
slc25a1 gene expression [1]: 1375.94
slc25a5 gene expression [1]: 2038.43
slc26a1 gene expression [1]: 181.21
slc39a1 gene expression [1]: 489.71
Mmp10 gene change [2]: ↓
Mmp13 gene change [2]: N/C
